Laboratory results published in ChEMBL document CHEMBL1201862, “PubChem BioAssay data set” (2004).
Calls of active or inactive are those of the source.

Tests used:
SUMO-activating enzyme = SUMO-activating enzyme (Homo sapiens, UniProt Q9UBT2); assay: blockers of UBC9-mediated SUMO conjugation – biochemical, AlphaScreen, SUMOylation inhibitor project, confirmation (AID 2018); format: functional
[1] = molecular target: T1, G-protein coupled receptor 55 (Homo sapiens, UniProt Q9Y2T6); assay: selective activators of receptor GPR55 – imaging, U2OS cells, beta-arrestin-GFP redistribution, primary screen (AID 1961); format: functional
Cannabinoid receptor 2 [2] = molecular target: T2, Cannabinoid receptor 2 (Homo sapiens, UniProt P34972); assay: SAR analysis of antagonists of the Cannabinoid Receptor 2 using an Image-Based Assay - Set 2. [Related pubchem assays (depositor defined):AID1961, AID1965]; format: functional
Cannabinoid receptor 2 [3] = molecular target: T2, Cannabinoid receptor 2; assay: SAR analysis of agonists of the Cannabinoid Receptor 2 using an Image-Based Assay - Set 2. [Related pubchem assays (depositor defined):AID1961, AID1965]; format: functional
[4] = molecular target: T1, G-protein coupled receptor 55; assay: SAR analysis of selective Agonists of GPR55 using an Image-Based Assay. [Related pubchem assays (depositor defined):AID1961, AID1965]; format: functional
Cannabinoid receptor 1 = Cannabinoid receptor 1 (Homo sapiens, UniProt P21554); assay: SAR analysis of antagonists of the Cannabinoid Receptor 1 using an Image-Based Assay. [Related pubchem assays (depositor defined):AID1961, AID1965]; format: functional
[5] = system: Streptococcus sp. 'group A'; assay: Streptococcus pyogenes SK(-)GAS viability under kanamycin – luminescence, BacTiterGlo, confirmation, counter-screen for streptokinase expression inhibitor project, dose response (AID 1900); format: functional, organism-based
Streptokinase A = molecular target: T3, Streptokinase A (Streptococcus pyogenes serotype M1, UniProt P10520); assay: viability-normalized secreted streptokinase activity reduction – plasminogen activation absorbance, OD405, dose response (AID 1914); format: functional, Streptococcus pyogenes M1 GAS;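 note: secreted streptokinase activity via plasminogen activation per viability signal from cell pellet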
T3 sequence (P10520 whole entry): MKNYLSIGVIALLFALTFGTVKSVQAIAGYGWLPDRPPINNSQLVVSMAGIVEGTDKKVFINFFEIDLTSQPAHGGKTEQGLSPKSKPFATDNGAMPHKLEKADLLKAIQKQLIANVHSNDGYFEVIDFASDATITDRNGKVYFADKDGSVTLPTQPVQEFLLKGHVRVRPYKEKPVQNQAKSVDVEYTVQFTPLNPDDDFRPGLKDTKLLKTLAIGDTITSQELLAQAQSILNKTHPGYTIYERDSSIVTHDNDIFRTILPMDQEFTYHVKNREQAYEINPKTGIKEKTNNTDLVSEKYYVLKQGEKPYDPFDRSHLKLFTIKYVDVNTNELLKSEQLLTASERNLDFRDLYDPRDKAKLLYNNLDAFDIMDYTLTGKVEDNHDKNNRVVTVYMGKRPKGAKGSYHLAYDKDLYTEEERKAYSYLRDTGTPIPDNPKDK

[6] = viability of PTEN-deleted HCT116 cells – cell-based, HCT116 PTEN knockout, dose response (AID 1047); format: functional;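 note: HCT116 colon tumor cells with PTEN knocked out; cells exposed to compound for 60 hours before readout; potency for loss of cell viability measured by luminescence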
[7] = viability of HCT116 lacking mutant beta-catenin – cell-based, human colon tumor, dose response (AID 1045); format: functional;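 note: HCT116 colon tumor cells with beta catenin knocked out; cells exposed to compound for 60 hours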
Streptococcus = assay: GAS UMAA2166 growth inhibition – luminescence, BacTiterGlo, counter-screen for streptokinase expression inhibitor project, dose response (AID 1915); format: functional, organism-based;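 note: potency for reduction of bacterial viability or growth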
[8] = Luminescence Cell-Based Dose Retest to Confirm Inhibitors of Cancer Stem Cells. [Related pubchem assays (depositor defined):AID2717, AID2721]; format: functional; conditions: Homo sapiens
Mu-type opioid receptor [9] = molecular target: T4, Mu-type opioid receptor (Homo sapiens, UniProt P35372); assay: mu opioid receptor activators, image-based, SAR follow-up (AID 2352); format: functional
[10] = molecular target: T5, Delta-type opioid receptor (Homo sapiens, UniProt P41143); assay: DOR agonists, SAR follow-up, image-based (AID 2370); format: functional
[11] = molecular target: T6, Kappa-type opioid receptor (Homo sapiens, UniProt P41145); assay: kappa opioid receptor blockers, image-based, SAR follow-up (AID 2348); format: functional
Mu-type opioid receptor [12] = molecular target: T4, Mu-type opioid receptor; assay: mu opioid receptor blockers – image-based, SAR follow-up (AID 2420); format: functional;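 note: compounds added before stimulation of receptor with agonist DAMGO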
[13] = molecular target: T6, Kappa-type opioid receptor; assay: kappa opioid receptor activation potency – imaging, image-based, SAR follow-up (AID 2359); format: functional
[14] = molecular target: T7, Tyrosine-protein phosphatase non-receptor type 7 (Homo sapiens, UniProt P35236); assay: SAR analysis of chemical inhibitors of HePTP using a Fluorescent assay - Set 2. [Related pubchem assays (depositor defined):AID1059, AID1077, AID1661, AID2085, AID521]; format: functional
T7 sequence (P35236 whole entry): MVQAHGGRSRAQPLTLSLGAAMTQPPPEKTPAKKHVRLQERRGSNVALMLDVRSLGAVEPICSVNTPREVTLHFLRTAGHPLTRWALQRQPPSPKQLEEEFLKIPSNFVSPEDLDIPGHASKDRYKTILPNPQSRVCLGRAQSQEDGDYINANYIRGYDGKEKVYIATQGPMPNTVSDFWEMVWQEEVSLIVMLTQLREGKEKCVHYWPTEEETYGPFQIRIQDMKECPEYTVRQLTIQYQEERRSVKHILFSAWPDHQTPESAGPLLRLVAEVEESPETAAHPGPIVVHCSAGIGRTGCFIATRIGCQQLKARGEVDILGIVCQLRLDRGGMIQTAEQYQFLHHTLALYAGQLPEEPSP

[15] = molecular target: Dual specificity protein phosphatase 3 (Homo sapiens, UniProt P51452); assay: SAR VHR1 Fluorescent Assay for In Vitro dose response studies Set 2. [Related pubchem assays (depositor defined):AID1654, AID1661, AID1878]; format: functional
[16] = molecular target: T5, Delta-type opioid receptor; assay: delta opioid receptor blockers – image-based, SAR follow-up (AID 2357); format: functional
[17] = molecular target: T6, Kappa-type opioid receptor; assay: kappa opioid receptor blockers, cell-based, luminescence, beta-arrestin, SAR follow-up (AID 2285); format: functional
[18] = potency of ADAM10 substrate cleavage blockers – biochemical, QFRET, dose response (AID 743254);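 note: ADAM10 enzyme with the DM2 quenched FRET peptide as substrate; EDANS fluorescence gain as the protease cuts the substrate; inhibitor potency against ADAM10 proteolytic activity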
[19] = molecular target: Disintegrin and metalloproteinase domain-containing protein 17 (Homo sapiens, UniProt P78536); assay: inhibition of ADAM17 substrate cleavage – biochemical, quenched FRET substrate, counter-screen for ADAM10 exosite inhibitor project, dose response (AID 743253)
[20] = molecular target: T8, Heat shock factor protein 1 (Mus musculus, UniProt P38532); assay: decrease of HSF1-responsive luciferase luminescence – cell-based, NIH3T3, dose retest, confirmation (AID 2382); format: functional;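 note: NIH3T3 fibroblasts with HSF1-driven luciferase reporter stressed by proteasome inhibitor MG132; luminescence from HSF1-driven luciferase expression after 8 hours of MG132 stress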
T8 sequence (P38532 whole entry): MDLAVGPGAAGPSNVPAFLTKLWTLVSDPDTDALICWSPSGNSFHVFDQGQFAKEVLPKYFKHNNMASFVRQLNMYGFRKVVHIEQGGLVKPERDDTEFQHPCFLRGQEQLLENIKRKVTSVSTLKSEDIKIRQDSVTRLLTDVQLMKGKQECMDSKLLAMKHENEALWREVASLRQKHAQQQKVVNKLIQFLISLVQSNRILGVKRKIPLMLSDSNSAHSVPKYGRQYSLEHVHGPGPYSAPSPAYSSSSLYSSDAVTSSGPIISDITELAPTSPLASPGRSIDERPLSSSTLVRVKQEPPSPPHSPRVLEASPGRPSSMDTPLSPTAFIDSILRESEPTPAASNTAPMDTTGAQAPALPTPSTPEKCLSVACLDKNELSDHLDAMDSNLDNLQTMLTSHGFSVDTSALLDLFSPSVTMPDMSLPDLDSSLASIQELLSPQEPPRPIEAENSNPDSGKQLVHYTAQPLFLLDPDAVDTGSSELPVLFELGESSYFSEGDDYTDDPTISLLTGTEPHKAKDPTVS

[21] = molecular target: Peroxisome proliferator-activated receptor gamma (Homo sapiens, UniProt P37231); assay: PPARg transcriptional activation, reporter cells – cell-based, luminescence, assay provider, dose response (AID 504447); format: functional
[22] = molecular target: T5, Delta-type opioid receptor; assay: HTS Image-Based Screen for Antagonists of the DOR Receptor. [Related pubchem assays (depositor defined):AID1777, AID1785, AID1786, AID2133]; format: functional
Mu-type opioid receptor [23] = molecular target: T4, Mu-type opioid receptor; assay: HTS Image-Based Screen for Agonists of the MOR Receptor. [Related pubchem assays (depositor defined):AID1777, AID1785, AID1786, AID2133]; format: functional
[24] = molecular target: T5, Delta-type opioid receptor; assay: HTS Image-Based Screen for Agonists of the DOR Receptor. [Related pubchem assays (depositor defined):AID1777, AID1786, AID2133]; format: functional
[25] = molecular target: T6, Kappa-type opioid receptor; format: functional
Beta-galactosidase = Beta-galactosidase (Escherichia coli, UniProt Q8VNN2); format: functional
[26] = molecular target: T6, Kappa-type opioid receptor; format: functional; remark: listed apart in the source
Coagulation factor XII = molecular target: T9, Coagulation factor XII (Homo sapiens, UniProt P00748); assay: Factor XIIa Dose Response Confirmation from Single Well HTS. [Related pubchem assays (depositor defined):AID701]; format: functional
T9 sequence (P00748 whole entry): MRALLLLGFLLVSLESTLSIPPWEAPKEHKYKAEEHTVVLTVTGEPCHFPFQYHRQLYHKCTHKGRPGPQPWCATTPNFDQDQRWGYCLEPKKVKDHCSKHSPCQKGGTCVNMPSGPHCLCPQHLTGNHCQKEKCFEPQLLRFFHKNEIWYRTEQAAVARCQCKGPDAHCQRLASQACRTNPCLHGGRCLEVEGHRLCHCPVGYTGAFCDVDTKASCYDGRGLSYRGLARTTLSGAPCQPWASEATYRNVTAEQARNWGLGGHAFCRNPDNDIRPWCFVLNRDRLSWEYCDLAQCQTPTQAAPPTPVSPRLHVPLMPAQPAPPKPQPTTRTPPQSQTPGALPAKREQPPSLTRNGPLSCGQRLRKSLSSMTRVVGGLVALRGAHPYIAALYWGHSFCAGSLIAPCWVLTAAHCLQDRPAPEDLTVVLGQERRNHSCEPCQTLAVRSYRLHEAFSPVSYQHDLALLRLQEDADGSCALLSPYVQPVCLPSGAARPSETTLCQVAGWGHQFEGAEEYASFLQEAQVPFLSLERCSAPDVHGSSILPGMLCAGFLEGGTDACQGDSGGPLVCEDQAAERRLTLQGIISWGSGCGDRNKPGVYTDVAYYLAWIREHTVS

Hexokinase HKDC1 = Hexokinase HKDC1 (Homo sapiens, UniProt Q2TB90); assay: activation of HKDC1 glucose phosphorylation – biochemical, W721R variant, dose response (AID 504730); format: functional
Nonstructural protein 1 = Nonstructural protein 1 (Influenza A virus, UniProt Q194T2); format: functional, Influenza A virus (A/California/07/2009(H1N1))
Hexokinase-1 = Hexokinase-1 (Homo sapiens, UniProt P19367); assay: HK1 enzyme activation by HKDC1 hits – biochemical, selectivity assay for HKDC1 activator project, dose response (AID 504762); format: functional
[27] = molecular target: Heat shock protein HSP 90-alpha (Homo sapiens, UniProt P07900); format: functional, organism-based
Troponin, cardiac muscle = Troponin, cardiac muscle (Homo sapiens, UniProt P19429+P45379+P63316); assay: Fluorescence-based biochemical high throughput dose response assay for activators of the calcium sensitivity of cardiac Regulated Thin Filaments (RTF). [Related pubchem assays (depositor defined):AID493008, AID493018, AID504382, AID504383]; format: protein-complex assay
[28] = molecular target: T10, Runt-related transcription factor 1/Core-binding factor subunit beta (Homo sapiens, UniProt Q01196+Q13951); assay: disruptors of Runt domain/CBFb-SMMHC interaction – biochemical, FRET, Cerulean-Runt, Venus-CBFb-SMMHC, uHTS, […] (AID 1434); format: protein assay
[29] = molecular target: T10, Runt-related transcription factor 1/Core-binding factor subunit beta; assay: Runt domain/CBFb-SMMHC interaction disruptors – biochemical, TR-FRET (AID 1438); format: protein assay

CCCCCn1c(N)c(C#N)c2nc3ccccc3nc21
IC50 (SUMO-activating enzyme): 15.7 µM (active)

Cc1cccc(N2CCN(C(=O)c3cc(S(=O)(=O)N(C)C)ccc3N3CCCC3)CC2)c1C
EC50 [1]: 0.508 µM (active)
IC50 (Cannabinoid receptor 2 [2]): 15.1 µM (inactive)
EC50 (Cannabinoid receptor 2 [3]): > 32 µM (inactive)
EC50 [4]: 0.263 µM (active)
IC50 (Cannabinoid receptor 1): 21.7 µM (inactive)

O=C(NC(NC(=S)Nc1cccc(Cl)c1)C(Cl)(Cl)Cl)OCc1ccccc1 (centres undefined)
EC50 [5]: 3.59 µM (active)
EC50 (Streptokinase A): 3.92 µM (active)
EC50 [6]: 19.7 µM (active)
EC50 [7]: 19.6 µM (active)
EC50 (Streptococcus): 5.92 µM (active)
AC50 [8]: 1.53 µM (active)
EC50 (Mu-type opioid receptor [9]): > 32 µM (inactive)
EC50 [10]: > 32 µM (inactive)
IC50 [11]: 12.3 µM (inactive)
IC50 (Mu-type opioid receptor [12]): > 32 µM (inactive)
EC50 [13]: > 32 µM (inactive)
IC50 [14]: 87 µM (active)
IC50 [15]: > 100 µM (inactive)
IC50 [16]: 24.4 µM (inactive)
IC50 [17]: > 10 µM (inactive)
IC50 [18]: > 7.72 µM (active)
IC50 [19]: > 69.5 µM (inactive)

Cc1cc(C(=O)CN2C(=O)C(=O)N(Cc3ccccc3)C2=O)c(C)n1-c1ccc2c(c1)OCCO2
EC50 [20]: > 195 µM (not active)
EC50 [21]: 15 µM (active)

Cc1cn(-c2cc(NC(=O)c3ccc(C)c(NC(=O)c4cccc(-c5cnnc(O)c5)c4)c3)cc(C(F)(F)F)c2)cn1
IC50 [22]: > 32 µM (inactive)
EC50 (Mu-type opioid receptor [23]): > 32 µM (inactive)
EC50 [24]: > 32 µM (inactive)
IC50 [25]: 9.01 µM (active)
EC50 (Beta-galactosidase): > 31.5 µM (inactive)
IC50 [26]: 5.1 µM

CC(C)CN(CC(C)C)S(=O)(=O)N1CCC(C(=O)NCCc2ccc(Cl)cc2)CC1
IC50 (Coagulation factor XII): > 50 µM (inactive)

CC(=NNC(=S)Nc1cccc(C)c1)c1ccccn1
EC50 (Hexokinase HKDC1): 2.27 µM (active)
IC50 (Nonstructural protein 1): 8.54 µM (active)
EC50 (Hexokinase-1): > 80 µM (inactive)
AC50 [27]: 2.25 µM (active)

Oc1[nH]nc(C(F)(F)F)c1/C=N/c1cccc(Cl)c1
EC50 (Troponin, cardiac muscle): > 71.5 µM (inactive)

Cn1c(=O)c(/C=N/c2ccccc2)c(O)c2ccccc21
IC50 [28]: > 100 µM (inactive)
IC50 [29]: > 100 µM (inactive)
